Measurements as given in US9210931B2, “Pesticidal compositions and processes related thereto” (Dow AgroSciences LLC, priority 2010, dated 2015).

Tests used:
[1] = test system: Green Peach Aphid (Myzus persicae) (MYZUPE); experiment: Bioassay on green peach aphid (GPA), foliar spray on cabbage seedlings; type: in vivo; details: 72 h, 200 ppm foliar spray on cabbage seedlings, graded after three days, Abbott-corrected % control, read-out: MYZUPE % Ctrl @ 200 ppm
Procedure: Certain molecules disclosed in this document were tested against GPA using procedures described in the following example. In the reporting of the results, the “Table 3: GPA (MYZUPE) and sweetpotato whitefly-crawler (BEMITA) Rating Table” was used (See Table Section).
Cabbage seedlings grown in 3-inch pots, with 2-3 small (3-5 cm) true leaves, were used as test substrate. The seedlings were infested with 20-50 GPA (wingless adult and nymph stages) one day prior to chemical application. Four pots with individual seedlings were used for each treatment. Test compounds (2 mg) were dissolved in 2 mL of acetone/methanol (1:1) solvent, forming stock solutions of 1000 ppm test compound. The stock solutions were diluted 5× with 0.025% Tween 20 in H2O to obtain the solution at 200 ppm test compound. A hand-held aspirator-type sprayer was used for spraying a solution to both sides of […] leaves until runoff. Reference plants (solvent check) were sprayed with the diluent only containing 20% by volume of acetone/methanol (1:1) solvent. Treated plants were held in a holding room for three days at approximately 25° C. and ambient relative humidity (RH) prior to grading. Evaluation was conducted by counting the number of live aphids per plant under a microscope. Percent Control was measured by using Abbott's correction formula (W. S. Abbott, “A Method of Computing the Effectiveness of an Insecticide” J. Econ. Entomol. 18 (1925), pp. 265-267) as follows. Corrected % Control=100*(X−Y)/X • where • X=No. of live aphids on solvent check plants and • Y=No. of live aphids on treated plants
Biological Data for GPA (MYZUPE) and sweetpotato whitefly-crawler (BEMITA)” (See Table Section).

[2] = test system: Sweetpotato whitefly-crawler (Bemisia tabaci) (BEMITA); experiment: Insecticidal test for sweetpotato whitefly-crawler in foliar spray assay on cotton plants; type: in vivo; details: 200 ppm foliar spray on cotton plants, graded after 8-9 days, Abbott-corrected % control, read-out: BEMITA % Ctrl @ 200 ppm
Procedure: Cotton plants grown in 3-inch pots, with 1 small (3-5 cm) true leaf, were used as test substrate. The plants were placed in a room with whitefly adults. Adults were allowed to deposit eggs for 2-3 days. After a 2-3 day egg-laying period, plants were taken from the adult whitefly room. Adults were blown off leaves using a hand-held Devilbiss sprayer (23 psi). Plants with egg infestation (100-300 eggs per plant) were placed in a holding room for 5-6 days at 82° F. and 50% RH for egg hatch and crawler stage to develop. Four cotton plants were used for each treatment. Compounds (2 mg) were dissolved in 1 mL of acetone solvent, forming stock solutions of 2000 ppm. The stock solutions were diluted 10× with 0.025% Tween 20 in H2O to obtain a test solution at 200 ppm. A hand-held Devilbiss sprayer was used for spraying a solution to both sides of cotton leaf until runoff. Reference plants (solvent check) were sprayed with the diluent only. Treated plants were held in a holding room for 8-9 days at approximately 82° F. and 50% RH prior to grading. Evaluation was conducted by counting the number of live nymphs per plant under a microscope. Insecticidal activity was measured by using Abbott's correction formula and presented in “Table 4. Biological Data for GPA (MYZUPE) and sweetpotato whitefly-crawler (BEMITA)” (see column “BEMITA”): Corrected % Control=100*(X−Y)/X • where • X=No. of live nymphs on solvent check plants • Y=No. of live nymphs on treated plants Pesticidally Acceptable Acid Addition Salts, Salt Derivatives, Solvates, Ester Derivatives, Polymorphs, Isotopes and Radionuclides

Work on Cc1nc(-c2cccnc2)cn1N(C)C(=O)C(C)C [Compound 1] yielded an inhibition at 200 ppm [1] of 0 to 80%, an inhibition at 200 ppm [2] of 0 to 80% and a melting point of 122 to 125 °C.
In the case of CSC(C)CC(=O)N(C)n1cc(-c2cccnc2)nc1C (centres unmarked) [Compound 2, N-Methyl-N-(2-methyl-4-pyridin-3-yl-imidazol-1-yl)-3-methylsulfanyl-butramide], the inhibition at 200 ppm [1] is reported as 0 to 80% and the inhibition at 200 ppm [2] is reported as < 0%.
With Cc1nc(-c2cccnc2)cn1N(C)C(=O)OC(C)(C)C [Compound 3, Methyl-(2-methyl-4-pyridin-3-yl-imidazol-1-yl)-carbamic acid tert-butyl ester] the inhibition at 200 ppm [1] was 0 to 80% and the inhibition at 200 ppm [2] was 0 to 80%.
For Cc1nc(-c2cccnc2)c(C)n1NC(=O)OC(C)(C)C [Compound 4, (2,5-Dimethyl-4-pyridin-3-yl-imidazol-1-yl)-carbamic acid tert-butyl ester], the inhibition at 200 ppm [1] was < 0% and the inhibition at 200 ppm [2] was 0 to 80%.
CC(=O)Nn1cc(-c2cccnc2)nc1C [Compound 5] gave an inhibition at 200 ppm [1] of 80 to 100% and an inhibition at 200 ppm [2] of 80 to 100%.
With CC(=O)N(C)n1cc(-c2cccnc2)nc1C [Compound 6] the inhibition at 200 ppm [1] was 0 to 80% and the inhibition at 200 ppm [2] was 80 to 100%.
Cc1nc(-c2cccnc2)cn1N(C)C(=O)C(C)(C)C [Compound 7] showed an inhibition at 200 ppm [1] of 0 to 80% and an inhibition at 200 ppm [2] of 80 to 100%.
Cc1nc(-c2cccnc2)cn1N(C)C(=O)CC(F)(F)F [Compound 8] gave an inhibition at 200 ppm [1] of 0 to 80%, an inhibition at 200 ppm [2] of 80 to 100% and a melting point of 130.9 to 131.5 °C.
CCCCC(=O)N(C)n1cc(-c2cccnc2)nc1C [Compound 9] gave an inhibition at 200 ppm [1] of 0 to 80% and an inhibition at 200 ppm [2] of 80 to 100%.
CSCCC(=O)N(C)n1cc(-c2cccnc2)nc1C [Compound 10] gave an inhibition at 200 ppm [1] of 0 to 80% and an inhibition at 200 ppm [2] of 80 to 100%.
For Cc1nc(-c2cccnc2)cn1N(CC1CC1)C(=O)C(C)(C)C [Compound 11], the inhibition at 200 ppm [1] was 0 to 80% and the inhibition at 200 ppm [2] was 80 to 100%.
In the case of Cc1nc(-c2cccnc2)cn1N(CC1CC1)C(=O)CC(F)(F)F [Compound 12], the inhibition at 200 ppm [1] is reported as < 0% and the inhibition at 200 ppm [2] is reported as 80 to 100%.
For CCN(C(=O)C(C)(C)C)n1cc(-c2cccnc2)nc1C [Compound 13], the inhibition at 200 ppm [1] was < 0% and the inhibition at 200 ppm [2] was 0 to 80%.
For CCN(C(=O)CC(F)(F)F)n1cc(-c2cccnc2)nc1C [Compound 14], the inhibition at 200 ppm [1] was < 0% and the inhibition at 200 ppm [2] was < 0%.
In the case of CCCCC(=O)N(CC1CC1)n1cc(-c2cccnc2)nc1C [Compound 15], the inhibition at 200 ppm [1] is reported as 0 to 80% and the inhibition at 200 ppm [2] is reported as 80 to 100%.
With CSCC(C)(C)C(=O)N(C)n1cc(-c2cccnc2)nc1C [Compound 16] the inhibition at 200 ppm [1] was < 0% and the inhibition at 200 ppm [2] was < 0%.
Work on CCN(C(=O)C(C)C)n1cc(-c2cccnc2)nc1C [Compound 17] yielded an inhibition at 200 ppm [1] of 0 to 80% and an inhibition at 200 ppm [2] of 0 to 80%.
With CCN(C(=O)CCSC)n1cc(-c2cccnc2)nc1C [Compound 18] the inhibition at 200 ppm [1] was 80 to 100% and the inhibition at 200 ppm [2] was 80 to 100%.
CCCCC(=O)N(CC)n1cc(-c2cccnc2)nc1C [Compound 19] gave an inhibition at 200 ppm [1] of 0 to 80% and an inhibition at 200 ppm [2] of 80 to 100%.
With Cc1nc(-c2cccnc2)cn1N(CC1CC1)C(=O)C(C)C [Compound 20] the inhibition at 200 ppm [1] was 0 to 80% and the inhibition at 200 ppm [2] was < 0%.
CSCCC(=O)N(CC1CC1)n1cc(-c2cccnc2)nc1C [Compound 21] showed an inhibition at 200 ppm [1] of 0 to 80% and an inhibition at 200 ppm [2] of 80 to 100%.
Cc1nc(-c2cncc(F)c2)cn1N(C)C(=O)C(C)C [Compound 22] gave an inhibition at 200 ppm [1] of 0 to 80% and an inhibition at 200 ppm [2] of 80 to 100%.
For CSCCC(=O)N(C)n1cc(-c2cncc(F)c2)nc1C [Compound 23], the inhibition at 200 ppm [1] was 80 to 100% and the inhibition at 200 ppm [2] was 80 to 100%.
CCN(C(=O)C(C)C)n1cc(-c2cncc(F)c2)nc1C [Compound 24] showed an inhibition at 200 ppm [1] of 0 to 80% and an inhibition at 200 ppm [2] of 0 to 80%.
In the case of CCN(C(=O)CCSC)n1cc(-c2cncc(F)c2)nc1C [Compound 25], the inhibition at 200 ppm [1] is reported as 0 to 80% and the inhibition at 200 ppm [2] is reported as 80 to 100%.
With Cc1nc(-c2cncc(F)c2)cn1N(CC1CC1)C(=O)C(C)C [Compound 26] the inhibition at 200 ppm [1] was 0 to 80% and the inhibition at 200 ppm [2] was 0 to 80%.
In the case of CSCCC(=O)N(CC1CC1)n1cc(-c2cncc(F)c2)nc1C [Compound 27], the inhibition at 200 ppm [1] is reported as 0 to 80% and the inhibition at 200 ppm [2] is reported as 80 to 100%.
With CC(=O)Nn1cc(-c2cccnc2)nc1Cl [Compound 39, N-(2-Chloro-4-(pyridin-3-yl)-1H-imidazol-1-yl)acetamide] the melting point was 129 to 139 °C.
Work on CCN(C(=O)OC(C)(C)C)n1cc(-c2cccnc2)nc1Cl [Compound 41, tert-Butyl (2-chloro-4-(pyridin-3-yl)-1H-imidazol-1-yl)(ethyl)carbamate] yielded an inhibition at 200 ppm [1] of 0 to 80% and an inhibition at 200 ppm [2] of 80 to 100%.
